≈ marks a conversion by molar mass, not a printed value. Like-named read-outs stand apart in the source and are kept apart here.
Experiments:
[1] = system: mitochondrial ribosome (human chimeric); assay type: biochemical
Text: (§1) The antiribosomal activity of these compounds was investigated with cell-free translation assays using both wild type bacterial ribosomes and hybrid ribosomes carrying eukaryotic decoding A sites enabling the prediction of selectivity.

MRSA = experiment: MIC by broth microdilution, MRSA isolates; assay type: cell-based; settings: for MIC50 / MIC: Staphylococcus aureus, MRSA
P aeruginosa = experiment: MIC by broth microdilution, P aeruginosa isolates; assay type: cell-based, Pseudomonas aeruginosa
N. gonorrhoeae = experiment: Disk diffusion, N. gonorrhoeae; assay type: cell-based; settings: Neisseria gonorrhoeae
[2] = system: Enterobacter cloacae AG290; experiment: MIC by broth microdilution, Enterobacter cloacae; assay type: cell-based; settings: strain AG290 Enterobacter cloacae; read-out: MIC AG290 E. cloacae
E coli wild type = experiment: MIC by broth microdilution, wild type E coli; assay type: cell-based; settings: Escherichia coli
[3] = system: A1555G mutant mitochondrial ribosome (human chimeric); experiment: in-vitro translation assay, human chimeric ribosomes, A1555G mutant mitochondrial decoding site; assay type: biochemical; settings: human mitochondrial decoding site with A1555G point mutation; read-out: IC50 Mitoch. A1555G
Text: as §1

M. abscessus = experiment: MIC by broth microdilution, M. abscessus; assay type: cell-based; settings: Mycobacteroides abscessus

NC[C@@H]1O[C@H](O[C@H]2[C@@H](O)[C@H](O[C@@H]3[C@@H](O)[C@H](N)C[C@H](N)[C@H]3O[C@H]3O[C@H](CO)[C@@H](O)[C@H](O)[C@H]3N)O[C@@H]2CO)[C@H](N)[C@@H](O)[C@@H]1O [paromomycin, reference compound]
IC50 ([1]; mitochondrial, Table 3 (Example 1), read-out: IC50 Mit): 140 µM | IC50 ([1]; mitochondrial, Table 3 (Example 2), read-out: IC50 Mit): 140 µM | IC50 ([1]; mitochondrial, Table 4 (Example 3), read-out: IC50 Mit): 140 µM | IC50 ([1]; ribosomes with a human mitochondrial decoding site, read-out: IC50 Mitoch.): 140 µM | MIC50 (MRSA; read-out: MIC50 MRSA AG39): > 256 µg/mL | MIC50 (MRSA; read-out: MIC50 MRSA AG42): > 256 µg/mL | MIC (MRSA; read-out: MIC AG039 MRSA AAC(6′)-I ANT(4′)-I): > 256 µg/mL | MIC (MRSA; read-out: MIC AG042 MRSA AAC(6′)-I ANT(4′)-I APH(2′)): > 256 µg/mL | MIC (MRSA; read-out: MIC MRSA AG039): > 256 µg/mL | MIC (MRSA; read-out: MIC MRSA AG042): > 256 µg/mL | MIC50 (MRSA; strain AG38, Table 1 (Example 1), read-out: MIC50 MRSA AG38): 4 µg/mL (≈ 6.5 µM) | MIC50 (MRSA; strain AG38, Table 1 (Example 2), read-out: MIC50 MRSA AG38): 4 µg/mL (≈ 6.5 µM) | MIC50 (MRSA; strain AG44, Table 1 (Example 1), read-out: MIC50 MRSA AG44): 4 to 8 µg/mL (≈ 6.5 to 13 µM) | MIC50 (MRSA; strain AG44, Table 1 (Example 2), read-out: MIC50 MRSA AG44): 4 to 8 µg/mL (≈ 6.5 to 13 µM) | MIC (MRSA; clinical isolate AG038, Table 1 (Example 3), read-out: MIC MRSA AG038): 4 µg/mL (≈ 6.5 µM) | MIC (MRSA; clinical isolate AG038, read-out: MIC AG038 MRSA): 4 µg/mL (≈ 6.5 µM) | MIC (MRSA; clinical isolate AG044, Table 1 (Example 3), read-out: MIC MRSA AG044): 4 to 8 µg/mL (≈ 6.5 to 13 µM) | MIC (MRSA; clinical isolate AG044, read-out: MIC AG044 MRSA): 4 to 8 µg/mL (≈ 6.5 to 13 µM) | MIC50 MRSA AG39 (MRSA; strain AG39, Table 1 (Example 2)): >256 µg/mL | MIC50 MRSA AG42 (MRSA; strain AG42, Table 1 (Example 2)): >256 µg/mL | MIC50 (P aeruginosa; Pseudomonas aeruginosa, read-out: MIC50 P aeruginosa AG31): > 128 µg/mL | MIC50 (P aeruginosa; Pseudomonas aeruginosa, read-out: MIC50 P aeruginosa AG32): > 128 µg/mL | MIC50 (P aeruginosa; Pseudomonas aeruginosa, read-out: MIC50 P aeruginosa AG33): > 128 µg/mL | MIC50 (P aeruginosa; Pseudomonas aeruginosa, read-out: MIC50 P aeruginosa AG86): > 128 µg/mL | MIC (P aeruginosa; Pseudomonas aeruginosa, read-out: MIC AG031 P. aer. APH(3′)-II): > 128 µg/mL | MIC (P aeruginosa; Pseudomonas aeruginosa, read-out: MIC AG032 P. aer. APH(3′)-II): > 128 µg/mL | MIC50 P aeruginosa AG31 (P aeruginosa; strain AG31, Table 1 (Example 2)): >128 µg/mL | MIC50 P aeruginosa AG32 (P aeruginosa; strain AG32, Table 1 (Example 2)): >128 µg/mL | MIC50 P aeruginosa AG33 (P aeruginosa; strain AG33, Table 1 (Example 2)): >128 µg/mL | MIC50 P aeruginosa AG86 (P aeruginosa; strain AG86, Table 1 (Example 2)): >128 µg/mL | MIC (P aeruginosa; strain AG220 Pseudomonas aeruginosa ATCC27853, read-out: MIC AG220 P. aerugin): > 64 µg/mL | zone of inhibition at 25 nmol/disc (N. gonorrhoeae): 9 mm | MIC [2]: 2 µg/mL (≈ 3.25 µM) | MIC (E coli wild type; AG006 wt, Table 2 (Example 1), read-out: MIC E coli AG006 wt): 1 to 2 µg/mL (≈ 1.62 to 3.25 µM) | MIC (E coli wild type; AG102 wt, Table 2 (Example 1), read-out: MIC E coli AG102 wt): 1 µg/mL (≈ 1.62 µM) | MIC (E coli wild type; AG160 wt, Table 2 (Example 1), read-out: MIC E coli AG160 wt): 2 to 4 µg/mL (≈ 3.25 to 6.5 µM) | MIC (E coli wild type; ATCC25922, strain AG212 E. coli (ATCC25922), read-out: MIC AG212 E. coli): 2 to 4 µg/mL (≈ 3.25 to 6.5 µM) | MIC50 (E coli wild type; BM13 (AG06) wt, Table 2A (Example 2), read-out: MIC50 E coli BM13 (AG06) wt): 2 to 4 µg/mL (≈ 3.25 to 6.5 µM) | MIC (E coli wild type; E. coli strain pH430, WT, read-out: MIC pH430 WT): 1 to 2 µg/mL (≈ 1.62 to 3.25 µM) | MIC (E coli wild type; WT, Table 3 (Example 1), read-out: MIC WT): 1 to 2 µg/mL (≈ 1.62 to 3.25 µM) | MIC (E coli wild type; WT, Table 3 (Example 2), read-out: MIC WT): 1 to 2 µg/mL (≈ 1.62 to 3.25 µM) | MIC (E coli wild type; WT, Table 4 (Example 3), read-out: MIC E. coli WT): 1 to 2 µg/mL (≈ 1.62 to 3.25 µM) | MIC (E coli wild type; WT, Table 5 (Example 3), read-out: MIC E. coli WT): 1 to 2 µg/mL (≈ 1.62 to 3.25 µM) | MIC (E coli wild type; clinical isolate AG001, WT, read-out: MIC AG001 E. coli WT): 2 µg/mL (≈ 3.25 µM) | MIC (E coli wild type; clinical isolate AG001, Table 1 (Example 3), read-out: MIC E coli AG001): 16 to 32 µg/mL (≈ 26 to 52 µM) | MIC (E coli wild type; clinical isolate AG003, Table 1 (Example 3), read-out: MIC E coli AG003): 8 to 16 µg/mL (≈ 13 to 26 µM) | MIC (E coli wild type; clinical isolate AG055, WT, read-out: MIC AG055 E. coli WT): 2 µg/mL (≈ 3.25 µM) | MIC (E coli wild type; clinical isolate AG055, Table 1 (Example 3), read-out: MIC E coli AG055): 8 µg/mL (≈ 13 µM) | MIC (E coli wild type; clinical isolate AG160 WT, Table 2 (Example 4), read-out: MIC AG160 E. coli WT): 2 to 4 µg/mL (≈ 3.25 to 6.5 µM) | MIC (E coli wild type; engineered strain pH430 WT, Table 2 (Example 4), read-out: MIC pH430 E. coli WT): 1 to 2 µg/mL (≈ 1.62 to 3.25 µM) | MIC50 (E coli wild type; read-out: MIC50 E coli pH430 WT): 1 to 2 µg/mL (≈ 1.62 to 3.25 µM) | MIC (E coli wild type; read-out: MIC E coli AG006 Wild type, AG006 Wild type, Table 2 (Example 3)): 2 µg/mL (≈ 3.25 µM) | MIC (E coli wild type; read-out: MIC E coli AG104 Wild type, AG104 Wild type, Table 2 (Example 3)): 2 µg/mL (≈ 3.25 µM) | MIC50 (E coli wild type; strain AG01, Table 1 (Example 1), read-out: MIC50 E coli AG01): 2 to 4 µg/mL (≈ 3.25 to 6.5 µM) | MIC50 (E coli wild type; strain AG01, Table 1 (Example 2), read-out: MIC50 E coli AG01): 2 to 4 µg/mL (≈ 3.25 to 6.5 µM) | MIC50 (E coli wild type; strain AG03, Table 1 (Example 1), read-out: MIC50 E coli AG03): 4 µg/mL (≈ 6.5 µM) | MIC50 (E coli wild type; strain AG03, Table 1 (Example 2), read-out: MIC50 E coli AG03): 4 µg/mL (≈ 6.5 µM) | MIC50 (E coli wild type; strain AG55, Table 1 (Example 1), read-out: MIC50 E coli AG55): 2 to 4 µg/mL (≈ 3.25 to 6.5 µM) | MIC50 (E coli wild type; strain AG55, Table 1 (Example 2), read-out: MIC50 E coli AG55): 2 to 4 µg/mL (≈ 3.25 to 6.5 µM) | IC50 [3]: 15 µM | MIC (M. abscessus; ATCC19977, read-out: MIC M. abscessus ATCC 19977 WT): 8 µg/mL (≈ 13 µM) | MIC (M. abscessus; read-out: MIC M. abscessus ATCC): 8 µg/mL (≈ 13 µM) | MIC (M. abscessus; read-out: MIC M. abscessus Clin. Isol.): 32 µg/mL (≈ 52 µM) | MIC (M. abscessus; read-out: MIC M. abscessus clinical isolate): 32 µg/mL (≈ 52 µM) | MIC (M. abscessus; read-out: MIC M. abscessus engineered Δeis2): 4 µg/mL (≈ 6.5 µM)
